Test results as given in patent US9809562B2, “NAT10 modulators for treating or preventing laminopathies, aging and cancer” (CAMBRIDGE ENTERPRISE LIMITED, priority 2014, dated 2017).
Structures can show the parent of a compound that is named as a salt.

Assays:
[1] = test system: U2OS cells transfected with siCT or siLMNA; assay: Cell density after cycloheximide (DAPI staining); format: cell-based, human; details: 24 h treatment
Protocol: FIG. 16: Compound 2 decreases protein translation of Lamin A/C depleted cells. A) U2OS cells transfected with siRNA control (siCT) or siRNA Lamin A/C (siLMNA) were plated at the same density, treated with cycloheximide (CHX) for 24 h to inhibit protein synthesis and stained with DAPI. […] B) Protein synthesis was measured by quantifying the incorporation of HPG, a clickable analogue of methionine.

[2] = test system: LMNA knock out (KO) U2OS cell line; assay: Cell growth of LMNA KO versus LMNA WT U2OS cells (IncuCyte ZOOM); format: cell-based, human; details: U2OS LMNA KO
From the text: LMNA knock out (KO) U2OS cell line was engineered using CripR/Cas9 technology. The sensitivity of LMNA KO cells to Compound 2 was compared to cells expressing wild type LMNA (LMNA WT). Cell growth was monitored automatically over time using an IncuCyte ZOOM®. The results are shown in FIG. 21 which has been split into two graphs for easier reading of the curves.

[3] = test system: Lamin A/C depleted (siLMNA) U2OS cells; assay: Nuclear shape rescue (DAPI staining, nuclear circularity) in Lamin A/C depleted cells; format: cell-based, human; details: 16 hours, Compound 2 and 3 50 μM, MB-3 5 μM, FTI 5 μM, nocodazole 200 ng/ml, colchicine 1 μg/ml, latrunculin A 1 μM
Protocol: (§1) U2OS and SaOS-2 osteosarcoma cells, HeLa cervical cancer cells, A431 melanoma cells, NCI-SNU5 gastric cancer cells, MRC-5 lung fibroblast cells and Werner syndrome patient-derived SV40 fibroblast cells were grown in Dulbecco's modified Eagle medium (DMEM, Sigma-Aldrich) supplemented with 10% fetal bovine serum (BioSera), 2 mM L-glutamine, 100 U per ml penicillin, 100 μg ml^−1 streptomycin. Normal skin primary fibroblasts GM03440 and Hutchinson Gilford Progeria Syndrome (HGPS) skin primary fibroblasts AG11498 and AG06297 were purchased from Coriell Cell Repositories and used between passage number 9-12 and 20-23 respectively. Cells were grown in DMEM supplemented as above. RPE-1 retinal pigment epithelial cells were grown in DMEM and Ham F12 mix medium supplemented as above and buffered with sodium bicarbonate. HMV-II melanoma cell line, 22RV1 prostate carcinoma cells, NCI-H82 and NCI-H69 lung carcinoma cells, and NCI-N87 gastric cancer cell lines were grown in RPMI-1640 medium (Sigma-Aldrich) supplemented as above. Stably transfected U2OS cells were maintained in standard medium containing 1 mg ml^−1 G418 (Invitrogen). The siRNA duplexes were obtained from Life Sciences: Lamin A/C stealth RNAi: […] (SEQ ID NO: 1) and […] (SEQ ID NO: 2), NAT10 stealth RNAi: […] (SEQ ID NO: 3), and as control siRNA, stealth RNAi negative control duplexes were used. Plasmid DNA and siRNA transfections were carried out using Lipofectamine 2000 and Lipofectamine RNAiMax (Life Sciences) respectively, following the manufacturer's instructions. Cells were analysed 48 to 72 hours after transfection.
(§2) The following KAT and KDAC inhibitors were used in the nuclear shape rescue screen, incubating cells with the molecules for 16 hours: trichostatin A (1 μM), sodium butyrate (5 mM), tubacin (10 μM), SAHA (5 μM), curcumin (10 μM), garcinol (50 μM), anacardic acid (1 μM), MB-3 (5 μM), 4-(4-chlorophenyl)-2-(2-cyclopentylidenehydrazinyl)thiazole (Compound 2) (50 μM), 4-(4-chlorophenyl)-2-(2-cyclopentylidene-1-(prop-2-yn-1-yl)hydrazinyl)thiazole (Compound 3) (50 μM) and cyclopentylidene-[4-(4-cyanophenyl)thiazol-2-yl)hydrazine (Compound 1) (Remodelin) (10 to 50 μM). For HGPS cellular fitness assays, Remodelin was incubated at 1 μM for 1 to 10 days, renewing the medium every 3 days. For long-term senescence assay, cells were kept and passaged in medium containing 1 μM Remodelin or DMSO only for 12 population doublings. Senescence was assessed after 8 days of Remodelin treatment when cells were at Population Doubling 12, and then after several weeks of Remodelin treatment, when cells reached Population Doubling 24 using the Senescence β-Galactosidase Staining Kit #9860 from Cell Signaling. Nocodazole, colchicine and latrunculin A (Sigma-Aldrich) were used at 200 ng/ml, 1 μg/ml and 1 μM respectively. Aphidicolin (Sigma-Aldrich) was used at 5 μg/ml for 16 h. Farnesyltransferase inhibitor FTI-277 was purchased from Tocris Bioscience and used at 5 μM. ATMi (KU55933) and ATRi (ATR-45) were obtained from Tocris Bioscience and from the Ohio State University respectively and used at 10 μM and 500 nM. Pifithrin alpha (Sigma-Aldrich) was used at 10 μM.
CellProfiler software was used to quantify nuclear circularity and nuclear area from DAPI staining pictures, using the “object size shape” measurement. The AreaShape measurement allowed the calculation of the Form Factor index ([…]) corresponding to circularity (a Form Factor of 1 reflecting a perfect circle), as well as the calculation of nuclear Area.
Lamin A/C was depleted by siRNA in U2OS cells (siLMNA) to induce misshapen nuclei. Cells were then treated for 16 h with various analogues of Compound 2 and nuclear shape rescue was analysed by DAPI staining. The results are shown in FIG. 18 and FIG. 19 which display the structures of the tested molecules and their ability to rescue nuclear shape.

[4] = test system: HGPS primary fibroblasts (AG11498 and AG06267); assay: Misshapen nuclei in HGPS cells; format: cell-based, human; details: HGPS patient fibroblasts
Protocol: as §1
as §2, with “Aphidicolin (Sigma-Aldrich) was used at 5 μg/ml for 16 h. Farnesyltransferase inhibitor FTI-277 was purchased from Tocris Bioscience and used at 5 μM. ATMi (KU55933) and ATRi (ATR-45) were obtained from Tocris Bioscience and from the Ohio State University respectively and used at 10 μM and 500 nM. Pifithrin alpha (Sigma-Aldrich) was used at 10 μM.” left out

[5] = test system: farnesyltransferase activity (pre-Lamin A cleavage and maturation); assay: Lamin A processing by western blotting; format: cell-based, human
Protocol: as §2, with “Nocodazole, colchicine and latrunculin A (Sigma-Aldrich) were used at 200 ng/ml, 1 μg/ml and 1 μM respectively. Aphidicolin (Sigma-Aldrich) was used at 5 μg/ml for 16 h. Farnesyltransferase inhibitor FTI-277 was purchased from Tocris Bioscience and used at 5 μM. ATMi (KU55933) and ATRi (ATR-45) were obtained from Tocris Bioscience and from the Ohio State University respectively and used at 10 μM and 500 nM. Pifithrin alpha (Sigma-Aldrich) was used at 10 μM.” left out
Total cell extracts were prepared by scraping cells in SDS lysis buffer (4% SDS, 20% glycerol, and 120 mM Tris-HCl, pH 6.8), boiling for 5 minutes at 95° C., followed by 10 strokes through a 25-gauge needle. […] Detection and quantification was performed with an imager (Odyssey; LI-COR Biosciences).

normal human fibroblasts = assay: Nuclear shape of normal fibroblasts, with or without FTI; format: cell-based
From the text: FIG. 11: Remodelin prevents FTI induced nuclear shape defects in non-progeric cells. A) Analysis of Lamin A/C processing after Remodelin or FTI treatment, showing that Remodelin is not a FTI. B) Representative pictures of Lamin A/C IF staining after the indicated treatments. Arrows indicate FTI induced misshapen nuclei in normal fibroblasts. Scale bar: 50 μm. C) Quantification of misshapen nuclei with the indicated cell lines and inhibitor treatments (means of three independent experiments±s.e.m. n>178). D) Representative pictures of DAPI staining showing effects of FTI and Remodelin on nuclear shape of U2OS cells. Scale bars: 20 μm.
U2OS and SaOS-2 osteosarcoma cells, HeLa cervical cancer cells, A431 melanoma cells, NCI-SNU5 gastric cancer cells, MRC-5 lung fibroblast cells and Werner syndrome patient-derived SV40 fibroblast cells were grown in Dulbecco's modified Eagle medium (DMEM, Sigma-Aldrich) supplemented with 10% fetal bovine serum (BioSera), 2 mM L-glutamine, 100 U per ml penicillin, 100 μg ml^−1 streptomycin. […] Cells were analysed 48 to 72 hours after transfection.
The following KAT and KDAC inhibitors were used in the nuclear shape rescue screen, incubating cells with the molecules for 16 hours: trichostatin A (1 μM), sodium butyrate (5 mM), tubacin (10 μM), SAHA (5 μM), curcumin (10 μM), garcinol (50 μM), anacardic acid (1 μM), MB-3 (5 μM), 4-(4-chlorophenyl)-2-(2-cyclopentylidenehydrazinyl)thiazole (Compound 2) (50 μM), 4-(4-chlorophenyl)-2-(2-cyclopentylidene-1-(prop-2-yn-1-yl)hydrazinyl)thiazole (Compound 3) (50 μM) and cyclopentylidene-[4-(4-cyanophenyl)thiazol-2-yl)hydrazine (Compound 1) (Remodelin) (10 to 50 μM). […] Senescence was assessed after 8 days of Remodelin treatment when cells were at Population Doubling 12, and then after several weeks of Remodelin treatment, when cells reached Population Doubling 24 using the Senescence β-Galactosidase Staining Kit #9860 from Cell Signaling. […]

[6] = test system: cells (sub-cellular distribution); assay: Fluorescent labelling of clickable molecules (sub-cellular distribution); format: cell-based; details: 2 hours pre-incubation, Alexa fluor 488 Azide click
Protocol: Cells were pre-incubated with clickable molecules Compound 3 or Reference Compound A (1-Chloro-4-ethynilbenzene, purchased from Sigma-Aldrich) for 2 hours before being fixed and permeabilised as described above. Click reaction was prepared using Invitrogen Click-iT reagents with Alexa fluor 488 Azide and incubated with fixed cells for 1 hour in the dark. In case of co-labelling with another protein, the click reaction was performed before the antibody incubations.

HGPS AG11498 cells = assay: Senescence-associated β-galactosidase in HGPS cells; format: cell-based, human; details: HGPS AG11498; Remodelin 1 μM, Pifithrin alpha 10 μM
Protocol: as §2

Compound	nuclear shape / nuclear circularity rescue [3]	misshapen nuclei / nuclear shape of HGPS cells [4]	also measured
C[C@@H]1C[C@@H]([C@H](O)CC2CC(=O)NC(=O)C2)C(=O)[C@@H](C)C1 [CHX, cycloheximide]	–	–	resistance of siLMNA versus siCT cells to protein synthesis inhibition [1]: siLMNA cells are more resistant to CHX
FC(F)(F)c1ccc(-c2csc(NN=C3CCCC3)n2)cc1 [Compound 13, 4-(4-Trifluoromethylphenyl)-2-(2-cyclopentylidenehydrazinyl)thiazole Hydrobromide Salt]	–	–	potency on LMNA KO cell growth inhibition compared to Compound 2 [2]: increased potency of Compound 13, compared to Compound 2
COC(=O)[C@H](CCSC)NC(=O)c1ccc(NC[C@@H](N)CS)cc1-c1ccccc1 [FTI, reference compound]	does not improve nuclear morphology in LMNA-depleted cells	improves the nuclear shape of HGPS cells	pre-Lamin A processing [5]: caused accumulation of the pre-Lamin A intermediate; nuclear shape of normal cells (normal human fibroblasts): has the opposite effect on normal cells
C=C1C(=O)OC(CCC)C1C(=O)O (stereo not drawn) [MB-3]	did not improve nuclear circularity	–	–
C#Cc1ccc(Cl)cc1 [Reference Compound A, 1-Chloro-4-ethynilbenzene, reference compound]	inactive	–	sub-cellular distribution of fluorescently labelled molecule [6]: little or no cellular staining
COc1cc2c(c(OC)c1OC)-c1ccc(OC)c(=O)cc1[C@@H](NC(C)=O)CC2 [colchicine]	also rescued the nuclear shape defects of siLMNA cells	also rescued the nuclear shape defects	–
C/C1=C/C(=O)O[C@@H]2C[C@@H](CC[C@H](C)/C=C\C=C\CC1)O[C@@](O)([C@@H]1CSC(=O)N1)C2 [latrunculin A]	increased nuclear distortion	–	–
COC(=O)Nc1nc2ccc(C(=O)c3cccs3)cc2[nH]1 [nocodazole]	also rescued the nuclear shape defects of siLMNA cells	also rescued the nuclear shape defects	–
Pifithrin [reference compound]	–	–	senescence of HGPS cells (β-galactosidase positive cells) (HGPS AG11498 cells): none of these compounds decrease the senescence
